Measured values from the OPERA property sets (Mansouri et al. 2018).

Conditions: for log10 BCF / log10 biotransformation half-life (days): fish

SMILES | melting point [°C] | boiling point [°C] | also measured
Clc1cc(Cl)c(-c2ccccc2)cc1Cl | 76.3 |  | log10 Henry constant (atm·m³/mol): -3.7; log10 Koa: 8; log10 vapour pressure (mmHg): -3.01; log10 BCF: 3.78; log10 biotransformation half-life (days): 1.84
CCCCCCCCCCCC | -9.6 | 216 | log10 biodegradation half-life (days): 1; log10 vapour pressure (mmHg): -0.87; ready biodegradability: readily biodegradable; log10 BCF: 2.38; log10 biotransformation half-life (days): 0.26
COc1ccccc1OC(C)=O | 31.5 |  | 
Clc1cc(Cl)c(-c2c(Cl)cc(Cl)cc2Cl)c(Cl)c1 |  |  | log10 Koa: 8.99; log10 Koc (L/kg): 6.08; log10 vapour pressure (mmHg): -4.92
O=C(O)CCCc1c[nH]c2ccccc12 | 124 |  | 
CCn1c(C)nc2ccccc21 | 51 | 296 | 
C=C(C)C(=O)OC1CCCCC1 |  |  | ready biodegradability: readily biodegradable
c1cnccn1 | 55 | 115 | log10 vapour pressure (mmHg): 1.03; ready biodegradability: readily biodegradable
COc1ccc(COC(C)=O)cc1 | 84 | 270 | 
CCC(=O)OCc1ccccc1 |  | 220 | 
O=[N+]([O-])c1ccc2c(c1)Cc1cc([N+](=O)[O-])ccc1-2 | 334 |  | 
CC=Cc1ccc2c(c1)OCO2 | 8.2 | 253 | 
O=C(O)CCC(=O)c1ccccc1 | 118 |  | 
Brc1cccc(Oc2ccc(Br)c(Br)c2Br)c1 |  |  | log10 vapour pressure (mmHg): -5.66
C=C1CC[C@H]2O[C@]2(C)CC[C@@H]2[C@@H]1CC2(C)C | 62.5 |  | 
Nc1c(Br)cc(Br)cc1Br | 122 | 300 | 
CC(C)C1CCCc2ccccc21 (configuration not stated) |  |  | ready biodegradability: not readily biodegradable
Oc1cc(O)cc(O)c1 | 218 |  | ready biodegradability: readily biodegradable
C=CC(C)Cl (configuration not stated) |  | 64.5 | log10 vapour pressure (mmHg): 2.18
CC(=O)OCC(=O)[C@@]1(O)[C@H](OC(C)=O)C[C@H]2[C@@H]3CCC4=CC(=O)C=C[C@]4(C)[C@@]3(F)[C@@H](O)C[C@@]21C | 235 |  | 
O=c1c(I)cn(CC(O)CO)cc1I (configuration not stated) | 161 |  | 
CN(C)CN(C)C |  | 83 | 
CCOCCOC(=O)C(C)Oc1ccc(Oc2ncc(C(F)(F)F)cc2Cl)cc1 (configuration not stated) | 60 |  | log10 vapour pressure (mmHg): -10.9
CCNC1=NC(=O)C(c2ccccc2)O1 (configuration not stated) | 148 |  | 
C=CC1CO1 (configuration not stated) | -135 | 68 | 

SMILES | melting point [°C] | boiling point [°C] | also measured
C[C@H](N)CCc1ccccc1 | 143 | 223 | 
CCCCn1c(=O)c2c(ncn2C)n(C)c1=O | 108 |  | 
Nc1ccccc1CO | 83.5 | 273 | 
Cc1cc(Cl)ccc1[N+](=O)[O-] | 25.5 |  | 
FC1(F)C(F)(F)C(F)(F)C(F)(F)C(F)(F)C1(F)F |  | 50.6 | log10 vapour pressure (mmHg): 2.23
Brc1ccc2ccccc2c1 | 59 | 282 | 
CCOP(=S)(OCC)SC(CCl)N1C(=O)c2ccccc2C1=O (configuration not stated) | 68 |  | log10 vapour pressure (mmHg): -7.21
C=C(C)c1ccc(Cl)cc1 |  |  | ready biodegradability: not readily biodegradable; log10 BCF: 2.84; log10 biotransformation half-life (days): 1.3
c1ccc(N=C(Nc2ccccc2)Nc2ccccc2)cc1 | 146 |  | 
O=C(Cl)c1cccc(C(=O)Cl)c1 | 43.5 | 276 | 
CCC1(C)CCCCC1 |  | 152 | 
COc1ccc(Cl)cc1 |  | 198 | 
C1CSCCN1 |  | 175 | 
O=C(OCc1ccccc1)c1ccccc1C(=O)OCc1ccccc1 | 44 |  | 
N#Cc1ccc(Cl)cc1N | 161 |  | 
COP(=S)(OC)SCC(=O)N(c1ccc(Cl)cc1)C(C)C | 51 |  | 
ClC(Cl)=C(Cl)Cl | -22.3 | 121 | log10 Henry constant (atm·m³/mol): -1.75; log10 Koa: 3.48; log10 Koc (L/kg): 2.4; log10 vapour pressure (mmHg): 1.27; ready biodegradability: not readily biodegradable; log10 BCF: 1.72; log10 biotransformation half-life (days): -0.88
C=COCCOCCO |  | 196 | 
CC1=CCC(C(C)C)C=C1 (configuration not stated) |  | 172 | log10 vapour pressure (mmHg): 0.147
CCCCCCC(C)CCCCCC | -37.2 |  | 
CC(C)CC(C)O (configuration not stated) | -90 | 132 | log10 Henry constant (atm·m³/mol): -4.35; log10 vapour pressure (mmHg): 0.724; ready biodegradability: readily biodegradable
CCCCCOCC |  | 118 | 
N#CC(CCN1CCC(C(N)=O)(N2CCCCC2)CC1)(c1ccccc1)c1ccccc1 | 150 |  | 
N=C(N)NOCC[C@H](N)C(=O)O | 184 |  | 
NNC(=O)c1ccccc1 | 115 |  | 

SMILES | melting point [°C] | boiling point [°C] | also measured
C=C(C)CCCCCC | -77.8 | 145 | 
C[C@H](NC(=O)c1ccccc1)C(=O)O (racemic) | 166 |  | 
CC[Si](CC)(CC)CC |  | 155 | log10 vapour pressure (mmHg): 0.699
CCCCC(C(=O)O)C(=O)N(Nc1ccccc1)c1ccccc1 (configuration not stated) | 116 |  | 
CCCCC(CC)COC(=O)c1ccc(C(=O)OCC(CC)CCCC)cc1 (configuration not stated) | -48 | 383 | log10 Koc (L/kg): 4.16
O=c1[nH]c2ccccc2n1C1CCN(CCCC(c2ccc(F)cc2)c2ccc(F)cc2)CC1 | 216 |  | 
O=C(O)c1cc(I)c(I)c(I)c1 | 292 |  | 
CCC(=O)F |  | 44 | 
O=S(=O)(F)Cc1ccccc1 | 93 |  | 
CCCCCCCC(C)=O | -7.5 | 195 | log10 Henry constant (atm·m³/mol): -3.44; log10 vapour pressure (mmHg): -0.205
CNC(=O)Oc1ccc2c(c1)[C@]1(C)CCN(C)[C@@H]1N2C | 106 |  | 
CCN(CC)C(=O)Cl | -32 | 186 | 
CC(C)OC(=O)c1ccccc1O |  | 238 | 
CSc1nc(NC(C)C)nc(NC(C)C)n1 | 119 |  | log10 Koc (L/kg): 2.85; log10 vapour pressure (mmHg): -5.91
CCC(CC)(CO)CO | 61.5 | 240 | 
CCCCCN1C(=O)c2ccc([N+](=O)[O-])cc2C1=O |  |  | ready biodegradability: readily biodegradable
O=S1(=O)CCCCO1 | 13.5 |  | 
C#CC(C)(O)c1ccccc1 (configuration not stated) | 52.3 | 218 | 
Cc1ccc(C)c(Cc2ccccc2)c1 |  |  | ready biodegradability: not readily biodegradable; log10 BCF: 3.14; log10 biotransformation half-life (days): 0.45
CCCCSSCCCC |  |  | log10 vapour pressure (mmHg): -1.2
Cc1ccccc1N=Cc1ccccc1 |  | 314 | 
O=C1NC(=O)c2c1cccc2[N+](=O)[O-] | 214 |  | 
OCc1ccc(-c2ccccc2)cc1 |  |  | log10 Koc (L/kg): 2.54
C=CCSSCC=C |  | 188 | 
CC1CCCO1 (configuration not stated) |  | 78 | log10 Henry constant (atm·m³/mol): -4.03; log10 vapour pressure (mmHg): 1.99

SMILES | melting point [°C] | boiling point [°C] | also measured
COC(C)=O | -98 | 56.8 | log10 Henry constant (atm·m³/mol): -3.94; log10 Koa: 2.31; log10 vapour pressure (mmHg): 2.33; ready biodegradability: readily biodegradable
O=C(c1ccccc1)c1ccccc1 |  |  | ready biodegradability: not readily biodegradable; log10 BCF: 1.08
CCCCCCCCCCCC=O | 44.5 |  | log10 vapour pressure (mmHg): -1.82
CCCCCC(C)OC(=O)COc1ccc(Cl)c2cccnc12 (configuration not stated) | 69.4 |  | log10 vapour pressure (mmHg): -7.4
CCOC(=O)c1ccc(OCC)cc1 |  | 275 | 
Clc1cc(Cl)c(Cl)nc1Cl | 90.5 | 250 | 
N#Cc1cc([N+](=O)[O-])c(Cl)c([N+](=O)[O-])c1 | 141 |  | 
COc1ccc(C(N)=O)cc1OC | 164 |  | 
CC1CN1 (configuration not stated) | -65 | 67 | log10 vapour pressure (mmHg): 2.15
O=C(NCN1CCOCC1)c1cnccn1 | 118 |  | 
CC(C)(CO)COC(=O)C(C)(C)CO |  |  | ready biodegradability: not readily biodegradable
CCOC(=O)C(=O)C(=O)OCC | -30 | 210 | 
CN1C(=O)CCS(=O)(=O)C1c1ccc(Cl)cc1 (configuration not stated) | 116 |  | 
c1ccc(Cn2cccc2)cc1 | 15 | 247 | 
CP(=O)(c1ccccc1)c1ccccc1 | 113 |  | 
CC=CC(C)C | -130 | 58.8 | 
CCSC(C)=O |  | 116 | 
CC#CCCC | -89.6 | 84.5 | 
CC(=O)Oc1ccc(C2(c3ccc(OC(C)=O)cc3)C(=O)Nc3ccccc32)cc1 | 242 |  | 
Nc1ccc(Br)cc1C(=O)O | 220 |  | 
N#CCCNCCC#N |  |  | ready biodegradability: not readily biodegradable; log10 BCF: 0.08
O=C(O)Cc1cccc(O)c1 | 132 |  | 
CCCC(=O)O[C@H]1[C@H](C)O[C@@H](O[C@H]2[C@H](N(C)C)[C@@H](O)[C@H](O[C@H]3[C@@H](CC=O)C[C@@H](C)[C@@H](O)C=CC=CC[C@@H](C)OC(=O)C[C@@H](O)[C@@H]3OC)O[C@@H]2C)C[C@@]1(C)OC(=O)CC | 116 |  | 
CCN(CC)C(=O)c1ccccc1C(=O)N(CC)CC | 36 |  | 
COC(=O)[C@H]1[C@H]2C[C@@H]3c4[nH]c5cc(OC)ccc5c4CCN3C[C@H]2C[C@@H](OC(=O)c2cc(OC)c(OC)c(OC)c2)[C@@H]1OC | 264 |  | 

SMILES | melting point [°C] | boiling point [°C] | also measured
CCCCCCCCCCCCCCCC(=O)[O-].[Na+] | 286 |  | 
NC(=O)Nc1cccc(Cl)c1 |  |  | log10 Koc (L/kg): 2.01
CCCc1cccc(C)c1 | -82.5 | 182 | log10 vapour pressure (mmHg): 0.425
CCOc1ccccc1O | 29 | 217 | 
O=C1C2(Cl)C3(Cl)C4(Cl)C(Cl)(Cl)C5(Cl)C3(Cl)C1(Cl)C5(Cl)C24Cl (configuration not stated) |  |  | log10 Koc (L/kg): 4.2; log10 vapour pressure (mmHg): -6.65; log10 BCF: 3.19
NCCc1ccccc1 | -60 | 198 | ready biodegradability: readily biodegradable
Cc1ncccn1 | -4 | 138 | 
C[Si](C)(C)O[Si](C)(C)O[Si](C)(C)O[Si](C)(C)O[Si](C)(C)C | -80 | 232 | log10 vapour pressure (mmHg): -0.991
Cc1cccc(NC(N)=O)c1 |  |  | log10 Koc (L/kg): 1.56
CC(C)N1C(=O)c2ccccc2[N]([Na])S1(=O)=O |  |  | log10 Koc (L/kg): 1.54
Cc1cc(O)c2ccccc2c1O | 169 |  | 
O=C(O)c1c(F)ccc(F)c1F | 130 |  | 
CSCC(C)C |  | 112 | 
CC(C)(C)CC(=O)O | 6.5 | 190 | 
CC(=O)Oc1cccc(C)c1 | 12 | 212 | 
C=C(C)C(C)=O | -54 | 98 | 
O=C(O)c1ccc(NC(=O)[C@H](Cc2ccc(O)cc2)NC(=O)c2ccccc2)cc1 | 241 |  | 
O=C(CO)c1ccccc1 | 90 |  | 
CCCC(C)C(C)CCC (configuration not stated) |  | 162 | 
C=CC(C)CCC=C(C)C (configuration not stated) |  |  | ready biodegradability: readily biodegradable
CCCCOC(=O)c1ccc(N)cc1 | 58 |  | 
CCOC(=O)CN |  | 149 | 
